This is an account of results in paper PMC9147171, “Pharmacokinetic/Pharmacodynamic Evaluation of a New Purine-2,6-Dione Derivative in Rodents with Experimental Autoimmune Diseases” (Pharmaceutics, 2022).

For one series, the system named is PDE4B. Particulars: read-out: IC50 (µM) Against PDE Isoform PDE4B; cited from earlier work.
Series [1] relates to MOG35–55-induced EAE in mice. Description: MOG35-55-induced experimental autoimmune encephalomyelitis (EAE) in mice, PK/PD EAE progression model. The class given is in vivo, female C57BL/6 mice. How it is done: Female C57BL/6 mice were immunized by subcutaneous injection of MOG35–55 peptide emulsified in complete Freund’s adjuvant and IP administration of pertussis toxin solution in PBS (Hooke Laboratories, Inc., Lawrence, MA, USA). Mice developed EAE 8–14 days after immunization and on day 14 they were randomly divided into two groups. The study group (n = 6) was administered with compound 34 solution at an IP dose of 50 mg·kg^−1 once daily for 15 days, whereas the control group (n = 6) received vehicle alone. To follow the progress of the disease, clinical score (CS) (scale 0–5), including “in-between” scores (i.e., 0.5, 1.5, 2.5, 3.5, and 4.5), and body weight of mice were evaluated according to the protocol provided by Hooke Laboratories, Inc.. Using the Mann–Whitney U test, it was verified that there is no significant difference in CS between the groups on the day of randomization. […]
The model assumes that some time is required for the compound to distribute from the serum to the site of action before it interacts with a biological target and exerts the pharmacological effect. […] The progression of disease, which was measured by CS, is stimulated by the sum of the signals from 20th and 38th transit compartments that allows us to capture the onset of the disease, the temporary remission, and the relapse of the disease that is a characteristic feature of this animal model of MS [30]. […]

Series [2] can be described thus: Pharmacokinetic study in rats, single IP dose, serum. The class given is in vivo. Particulars: female, Lewis, rat. How it is done:
Female Lewis rats and female C57BL/6 mice were administered IP with compound 34 dissolved in vehicle at a dose of 20 and 50 mg·kg^−1, respectively. Rats and mice were sacrificed at different time points (n = 3 per time point) following compound administration by decapitation under deep anesthesia. Thereafter, blood samples were harvested and allowed to clot at room temperature for 20 min and serum was separated by centrifugation at 3000 rpm for 10 min (EBA 12 R, Hettich, Germany). The obtained serum samples were stored at −80 °C until analysis.
Concentrations of compound 34 in rat and murine serum were quantified by an HPLC/UV method. To isolate the investigated compound, 100 μL of serum containing compound 34 or the same volume of blank serum spiked with a standard solution of compound 34, 10 μL of 4-(8-((furan-2-ylmethyl)amino)-1,3-dimethyl-2,6-dioxo-2,3,6,7-tetrahydro-1H-purin-7-yl)-N’-(2-hydroxybenzylidene)butanehydrazide methanol solution was used as an internal standard (IS) at a concentration of 80 μg·mL^−1, and 50 μL of 0.2 M NaOH solution was added. Subsequently, 1 mL of ethyl acetate was added to each sample and extraction was performed for 20 min on a VXR Vibrax shaker (IKA, Germany). Then, the samples were centrifuged (10,000× g, 5 min) on EBA 12 R centrifuge (Hettich, Germany) and the organic layers were collected and transferred to clean tubes. Subsequently, the organic layers were evaporated under a mild stream of nitrogen at 37 °C and the residues were dissolved in 100 μL of mobile phase and subjected to an HPLC analysis. The HPLC system (LaChrom Elite, Merck-Hitachi, Germany) consisted of L-2420 UV-VIS detector, an L-2200 autosampler, and an L-2130 pump. EZChrome Elite v. 3.2 (Merck-Hitachi, Germany) software was used for data acquisition and integration. The analysis was performed at ambient temperature on a LiChrospher 100 RP-18 column (250 × 4 mm) and a LiChroCART (4 × 4 mm) pre-column (Merck, Germany). The mobile phase was composed of acetonitrile mixed with 20 mM KH2PO4 water solution (pH = 4.5) at the ratio of 40:60 (v/v). A flow rate was 1 mL·min^−1 and analytical wavelength was set at 302 nm. The retention times of compound 34 and IS were approximately 6.3 min and 10.6 min. The method was validated according to the FDA Bioanalytical Method Validation Guidance for Industry (2018). The calibration curves constructed by plotting the peak area of the studied compound to the peak area of the IS vs. compound concentrations were linear in the tested concentration range, i.e., from 0.05–10 mg·L^−1 (r > 0.998). The limit of quantification was 0.05 mg·L^−1. […] The assay presented acceptable intra- and inter-assay precision and accuracy (i.e., they were within 15% of the CV and 15% of the nominal concentration, respectively) for all quality control concentrations (0.1, 1, and 5 mg·L^−1). The mean extraction efficiencies of the analyzed compound and the IS were above 80%.
Pharmacokinetics of compound 34 were investigated in rats and mice following single IP administration. One- and two-compartment models with first-order absorption and linear elimination were tested, but only the one-compartment model appropriately described the concentration-time courses of compound 34 in both rat and murine serum. […] The equations of the model are as follows:(1) dA/dt=−ka×A;A0=D×F, (2) Vd×dCp/dt=ka×A−CLT×Cp; Cp0=0 where A is the amount of the drug at the absorption site, ka is the first-order rate constant of drug absorption, D is the dose, F is the bioavailability, Vd is the volume of distribution, CLT is the total clearance, and Cp is the serum concentration of compound 34.

On to `Cn1c(=O)c2c(nc(NCCc3ccccc3)n2CCCC(=O)NN=Cc2ccc(O)c(O)c2O)n(C)c1=O` [Compound 34, 4-(1,3-dimethyl-2,6-dioxo-8-(phenethylamino)-2,3,6,7-tetrahydro-1H-purin-7-yl)-N′-(2,3,4-trihydroxybenzylidene)butanehydrazide], for which the IC50 with PDE4B is 1.4 µM. Moreover, the “mean relative body weight, experimental vs control group” value in series [1] (50 mg·kg^−1 IP once daily for 15 days) is reported as “not significantly different”. In series [1] (Mus musculus, ip, 50 mg·kg^−1 IP once daily for 15 days from day 14, clinical score, PK/PD model estimate, read-out: IC50_CS Compound 34 concentration resulting in 50% inhibition of disease progression, Estimate (CV%)), the IC50 at 50 mg/kg is 7 ng/mL. In addition, in series [2] (serum, 20 mg·kg^−1, IP, suspension in 10% methylcellulose), the absorption half-life amounted to 1.2 min. Moreover, in series [2] (single IP dose 20 mg·kg^−1, serum, one-compartment model, read-out: Vd/F Apparent volume of distribution, Final Estimate (CV%)), the Vd/F was 8.7 L/kg. Besides, the AUC in series [2] (single IP dose 20 mg·kg^−1, serum, read-out: AUC Area under the concentration-time curve, Final Estimate (CV%) (converted)) is 752 ng·h/mL. For the same compound, the CL/F in series [2] (single IP dose 20 mg·kg^−1, serum, read-out: CLT/F Apparent clearance, Final Estimate (CV%)) was 440 mL/min/kg. Also, the Cmax in series [2] (single IP dose 20 mg·kg^−1, serum, read-out: Cmax Maximum serum concentration, Final Estimate (CV%)) is 1820 ng/mL. Besides, in series [2] (single IP dose 20 mg·kg^−1, serum, read-out: t0.5 Elimination half-life, Final Estimate (CV%)), the half-life is 13.6 min.
